Experimental data as given in the supplement of paper PMC11061612.

How the values were obtained:
Experiment in all cases: combination Emax (second highest fraction inhibited in the dose matrix, 72 h); higher = more inhibition; extreme values may be limits of the assay
[1] = system: CAPAN-1 (Pancreatic Carcinoma)
Summary of the method: (§1)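 Cell lines in DMEM/F12 or RPMI with 10% FBS were plated in 1536-well plates, held 24 hours at 37°C, 5% CO2, then given two-drug dose matrices for 72 hours (DMSO typically 0.2%). Viability was read by CellTiter-Glo 2.0 luminescence and scaled as inhibition from 0 (vehicle wells) to 1 (blank wells). Combination Emax is the second-highest inhibition in the matrix; Bliss excess is observed combination effect minus expected EA + EB − EA·EB, EA and EB being single-agent effects.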

[2] = system: CTB-1 (B-Cell Non-Hodgkin's Lymphoma)
Summary of the method: as §1

[3] = system: HDLM-2 (Hodgkin's Lymphoma)
Summary of the method: as §1

HMV-II (Melanoma) = system: HMV-II (Melanoma)
Summary of the method: as §1

[4] = system: HO-1-u-1 (Oral Cavity Carcinoma)
Summary of the method: as §1

[5] = system: Hs-633T (Other Solid Carcinomas)
Summary of the method: as §1

[6] = system: K5 (Thyroid Gland Carcinoma)
Summary of the method: as §1

[7] = system: KARPAS-231 (B-Cell Non-Hodgkin's Lymphoma)
Summary of the method: as §1

[8] = system: KYSE-410 (Esophageal Squamous Cell Carcinoma)
Summary of the method: as §1

[9] = system: LB771-HNC (Head and Neck Carcinoma)
Summary of the method: as §1

[10] = system: LU-139 (Small Cell Lung Carcinoma)
Summary of the method: as §1

[11] = system: MDA-MB-468 (Breast Carcinoma)
Summary of the method: as §1

[12] = system: MHH-PREB-1 (B-Cell Non-Hodgkin's Lymphoma)
Summary of the method: as §1

Mewo (Melanoma) = system: Mewo (Melanoma)
Summary of the method: as §1

NCI-H28 (Mesothelioma) = system: NCI-H28 (Mesothelioma)
Summary of the method: as §1

[13] = system: OC-314 (Ovarian Carcinoma)
Summary of the method: as §1

[14] = system: OVCAR-8 (Ovarian Carcinoma)
Summary of the method: as §1

[15] = system: SW1116 (Colorectal Carcinoma)
Summary of the method: as §1

[16] = system: SW626 (Colorectal Carcinoma)
Summary of the method: as §1

[17] = system: TE-4 (Esophageal Squamous Cell Carcinoma)
Summary of the method: as §1

| SMILES | combination Emax [1] | combination Emax [2] | combination Emax [3] | combination Emax (HMV-II (Melanoma)) | combination Emax [4] | combination Emax [5] | combination Emax [6] | combination Emax [7] | combination Emax [8] | combination Emax [9] | combination Emax [10] | combination Emax [11] | combination Emax [12] | combination Emax (Mewo (Melanoma)) | combination Emax (NCI-H28 (Mesothelioma)) | combination Emax [13] | combination Emax [14] | combination Emax [15] | combination Emax [16] | combination Emax [17] |
| --- | --- | --- | --- | --- | --- | --- | --- | --- | --- | --- | --- | --- | --- | --- | --- | --- | --- | --- | --- | --- |
| CC1(C)CCC(CN2CCN(c3ccc(C(=O)NS(=O)(=O)c4ccc(NCC5CCOCC5)c([N+](=O)[O-])c4)c(Oc4cnc5[nH]ccc5c4)c3)CC2)=C(c2ccc(Cl)cc2)C1 [Venetoclax] + C[C@@H](Nc1cc(F)cc(F)c1)c1cc(C(=O)N(C)C)cc2c(=O)cc(N3CCOCC3)oc12 [AZD8186] (first compound max 1 µM, 7x7, partner max 3 µM) | 0.178 | 0.288 | 0.436 | 0.263 | 0.267 | 0.186 | 0.735 | 0.792 | 0.172 | 0.283 | 0.279 | 0.387 | 0.21 | 0.434 | 0.115 | 0.242 | 0.139 | 0.0998 | 0.127 | 0.0248 |
| CC1(C)CCC(CN2CCN(c3ccc(C(=O)NS(=O)(=O)c4ccc(NCC5CCOCC5)c([N+](=O)[O-])c4)c(Oc4cnc5[nH]ccc5c4)c3)CC2)=C(c2ccc(Cl)cc2)C1 [Venetoclax] + C=CCn1c(=O)c2cnc(Nc3ccc(N4CCN(C)CC4)cc3)nc2n1-c1cccc(C(C)(C)O)n1 [AZD1775] (first compound max 1 µM, partner max 1 µM) | 0.45 | 0.897 | 0.88 | 0.484 | 0.949 | 0.719 | 0.523 | 1 | 0.422 | 0.518 | 0.831 | 0.521 | 0.846 | 0.621 | 0.336 | 0.933 | 0.798 | 0.23 | 0.647 | 0.555 |
| Cc1c2c(nn1C)CSCc1cc(n(C)n1)CSc1cc(c3ccccc3c1)OCCCc1c(C(=O)O)n(C)c3c-2c(Cl)ccc13 [AZD5991] + Cc1cc2ncnn2cc1Nc1ncc2c(n1)n(C1CCOCC1)c(=O)n2C [AZD7648] (first compound max 1 µM, 7x7, partner max 10 µM) | 0.267 | 0.472 | 0.996 | 0.273 | 0.418 | 0.391 | 0.351 | 1 | 0.229 | 0.571 | 0.243 | 0.462 | 0.175 | 0.283 | 0.298 | 0.297 | 0.225 | 0.168 | 0.224 | 0.517 |
| Cc1c2c(nn1C)CSCc1cc(n(C)n1)CSc1cc(c3ccccc3c1)OCCCc1c(C(=O)O)n(C)c3c-2c(Cl)ccc13 [AZD5991] + C=CCn1c(=O)c2cnc(Nc3ccc(N4CCN(C)CC4)cc3)nc2n1-c1cccc(C(C)(C)O)n1 [AZD1775] (first compound max 1 µM, partner max 1 µM) | 0.465 | 0.916 | 1 | 0.487 | 0.677 | 0.711 | 0.482 | 1 | 0.625 | 0.745 | 0.555 | 0.615 | 0.853 | 0.496 | 0.416 | 0.554 | 0.865 | 0.378 | 0.559 | 0.801 |
| CC1(C)CCC(CN2CCN(c3ccc(C(=O)NS(=O)(=O)c4ccc(NCC5CCOCC5)c([N+](=O)[O-])c4)c(Oc4cnc5[nH]ccc5c4)c3)CC2)=C(c2ccc(Cl)cc2)C1 [Venetoclax] + CCN(CCO)CCCOc1ccc2c(Nc3cc(CC(=O)Nc4cccc(F)c4)[nH]n3)ncnc2c1 [AZD2811] (first compound max 1 µM, 7x7, partner max 1 µM) | 0.206 | 0.59 | 0.486 | 0.263 | 0.324 | 0.217 | 0.413 | 1 | 0.191 | 0.186 | 0.668 | 0.624 | 0.187 | 0.434 | 0.255 | 0.419 | 0.298 | 0.202 | 0.212 | 0.191 |
| CN(CCO)CC[C@H](CSc1ccccc1)Nc1ccc(S(=O)(=O)NC(=O)c2ccc(N3CCC([C@@H](O)c4ccccc4-c4ccc(Cl)cc4)CC3)cc2)cc1S(=O)(=O)C(F)(F)F [AZD4320] + Cn1cnc2c(F)c(Nc3ccc(Br)cc3Cl)c(C(=O)NOCCO)cc21 [Selumetinib] (first compound max 1 µM, 7x7, partner max 3 µM) | 0.802 | 0.591 | 0.847 | 0.826 | 0.465 | 0.5 | 0.679 | 0.977 | 0.391 | 0.255 | 0.928 | 0.789 | 0.164 | 0.528 | 0.313 | 0.351 | 0.498 | 0.599 | 0.837 | 0.308 |
